Data published in patent publication US20250296961A1, “ANTIMICROBIAL PEPTIDES FOR REMINERALIZATION OF TEETH AND PREVENTION OF DENTAL CARIES” (The University of Hong Kong, priority 2021, published 2025).
Read-outs that look alike come from different tables or passages of the source. Non-standard residues stand in square brackets, D forms with d. No end group written: not given here. *: point of attachment. 3,4‑dihydroxyphenethylamine = Oc1ccc(CCN*)cc1O; pS = N[C@@H](COP(=O)(O)O)C(=O)O

Tests used:
[1] = test system: S. mutans biofilms; type: cell-based; settings: for S. mutans killed (biofilm) / Viability counts of S. mutans biofilms: 24 h exposure
Protocol: (§1) Streptococcus mutans (ATCC 35668, ATCC, Manassas, USA) were cultured in Horse Blood Medium under anaerobic (85% N2, 10% H2, and 5% CO2) conditions at 37° C. Cells were harvested by centrifugation (5000 rpm, 10 min), washed once with 10 mM sodium phosphate-buffered saline (PBS, pH 7.2), and resuspended in brain-heart infusion broth (BHI, Difco Laboratories, Detroit, USA) at a concentration of 10^6 CFU/mL.
S. mutans biofilms were cultured on enamel working surfaces in a 96-well plate. Tooth slices (N=32) were autoclave-sterilized prior to anti-biofilm activity testing. 200 μL S. mutans in BHI (10^6 CFU/mL) was added to each well. After a 24-h incubation at 37° C., each tooth slice was washed once with PBS. […] (in 10 mM HEPES). After incubation, tooth slices were washed once with PBS. One tooth slice at random in each group was stained with the LIVE/DEAD BacLight Bacterial Viability Kit (L7012, Thermo Fisher Scientific, Waltham, USA) and incubated in the dark for 30 min. Fluorescence images were obtained using confocal laser scanning microscopy (CLSM, Fluoview 1000, Olympus, USA). A separate tooth slice was used for the counting of colony-forming units (CFU). Tooth slices were placed in 1 mL BHI solution, and adherent biofilms were removed from the enamel surfaces by sonication for 30 sec. Ten-fold serial dilutions of the suspensions were plated in duplicate on horse blood agar. CFU's were counted after 48-h incubation. Three independent biofilm experiments were performed.

[2] = Adsorption capacity assay: peptides with HA particles (Micro BCA); type: binding; settings: for Concentration change (95% CI): initial vs final concentration with HA particles; for Final concentration (Mean ± SD): peptide solution mixed with HA particles (20 mg/tube), overnight 37° C.
Protocol: The adsorption of P-113, P-113-DPS, P-113-DA, and P-113-SK to HA particles (Sigma Chemical Co., St Louis, USA) was measured using the Micro BCA method with Sp-H5 as the control group. Solutions of P-113, P-113-DPS, P-113-DA, P-113-SK and Sp-H5 in 10 mM HEPES buffer (pH 7) were diluted to 10 nmol/mL concentrations, and 200 μL was placed into each tube (P-113, N=10; P-113-DPS, N=10; P-113-DA, N=10; P-113-SK, N=10; and Sp-H5, N=10). Peptide solutions were mixed with (n=5) or without (n=5) HA particles (20 mg/tube) in each group. Tubes were placed onto a rotator overnight at 37° C. for complete reaction. Tubes containing the peptide solution and HA were centrifuged (13000 rpm, 1 min) and the supernatant collected. Bovine serum albumin (BSA) standard solutions (working range=5-250 μg/mL) and working reagent were prepared using the Pierce BCA Protein Assay Kit (Rockford, IL, USA). Working reagents (100 μL/well) were added to a 96-well plate, followed by standard and peptide solutions (100 μL/well). The Plate was incubated in the dark for 30 min and the absorbance (562 nm) measured using a plate reader. The concentration (C) of the BSA standard solution was linear with the absorbance (A) at 562 nm. The function of C=a*A+b was determined (a and b as constants). The final concentration (the peptide solution mixed with HA) and the initial concentration (the peptide solution without HA) were computed using the function and the generated absorbance data of the peptide solution mixed with and without HA.

[3] = test system: S. mutans; test: Anti-planktonic bacterial ability, MIC and MBC (Example 1); type: cell-based, Streptococcus mutans (ATCC 35668); settings: for MIC: 24 h
Protocol: as §1
Two-fold serial dilutions (in 10 mM HEPES) of P-113, P-113-DPS, P-113-DA, P-113-SK, and Sp-H5 prepared in 25% BHI medium were pipetted into a 96-well cell culture plate at final concentrations from 0.125-128 μmol/mL [100 μL/well]. Each well was seeded with 10 μL bacterial suspension at a final concentration of 10^6 CFU/mL. Sp-H5 with bacterial cells and 25% BHI medium with and without bacterial cells in 10 mM HEPES buffer (pH 7) were used as the positive, negative, and blank control group, respectively. After a 24-h incubation, absorbance was measured at 595 nm using a microplate reader to assess cell growth. […] The minimal bactericidal concentration (MBC) was defined as the lowest concentration of peptide resulting in no colony formation on agar plates after incubation. 10 μL of cell suspension from each well were plated on horse blood agar plates and incubated at 37° C. for 48 h. All determinations were conducted in triplicate experiments.

[4] = Demineralization assay of peptide-coated enamel (Example 1); parameters: species or system human; settings: for Maximum lesion depth: 8 μmol/mL coating, MicroCT
Protocol: (§2) 3×3×1.5 mm^3 (number: 197) tooth slices were prepared using a water-cooled diamond saw (IsoMet low-speed saw, Buehler, Lake Bluff, IL, USA). One working surface of complete enamel tissue from each tooth slice was generated using the MicroCT Skyscan 1172 (Bruker MicroCT, Kontich, Belgium). The enamel working side of the tooth slice was polished and other sides marked with acid-proof nail polish. All tooth slices were cleaned and stored in deionized water at 4° C.
Tooth slices (N=30) were immersed in 8 μmol/mL P-113, P-113-DPS, P-113-DA, P-113-SK, Sp-H5 (n=5 for each) solutions (in 10 mM HEPES) or HEPES (control) overnight. Tooth slices were incubated in 2 mL demineralization solution (2.2 mM CaCl2), 2.2 mM NaH2PO4, 0.05 M acetic acid, pH 4.5) for 7 days at 37° C. Lesions depths were analyzed by MicroCT Skyscan 1172. Mineral calcium (Ca) or phosphorus (P) concentrations before and after immersion were measured using Inductively Coupled Plasma Optical Emission Spectrometer (ICP-OES; Spectro Arcos, Kleve, Germany). Ca/P loss was expressed as mM/cm^2. The mean values of Ca/P loss were analyzed for each group using ANOVA at the 1% c significance level.

[5] = Remineralization assay of peptide-coated enamel (Example 1); parameters: species or system human; settings: 8 μmol/mL coating, remineralization solution 24 h, FE-SEM
Protocol: as §2
The enamel working surface of tooth slices (N=30) was acid-etched in 37% phosphoric acid for 1 min and rinsed with deionized water for 1 min. The slices were immersed in 8 μmol/mL P-113, P-113-DPS, P-113-DA, P-113-SK, Sp-H5 (n=5 for each) solutions (in 10 mM HEPES) or HEPES (control) overnight. All tooth slices were incubated in 7 mL remineralization solution (2.58 mM CaCl2)·2H2O, 1.55 mM KH2PO4, 10 mg/L NaF, 180 mM NaCl, 50 mM Tris-HCl, pH 7.6) for 24 h. The enamel surface and cross-section morphology were analyzed by FE-SEM (Hitachi, S4800). Ca/P concentrations in the solutions before and after immersion were calculated by ICP-OES. The mean values for Ca/P gain were analyzed using ANOVA at the 1‰ significance level.

[6] = test system: S. gordonii; test: Anti-planktonic bacterial ability, MBC (Example 2); type: cell-based, S. gordonii (ATCC 35105)
Protocol: (§3) S. mutans (ATCC 35668, ATCC, Manassas, USA), S. gordonii (ATCC 35105, ATCC, Manassas, USA), and S. sanguinis (ATCC 10556, ATCC, Manassas, USA) strains were cultured in brain-heart infusion broth (BHI, Difco Laboratories, Detroit, USA) at 37° C. under anaerobic conditions (85% N2, 10% H2, and 5% CO2). Bacteria were harvested by centrifugation (5000 rpm, 10 min), washed once with sodium phosphate-buffered saline (PBS, 10 mM, pH=7.2), and resuspended in BHI at a concentration of 1×10^6 CFU mL^−1.
(§4) Each well was seeded with 10 μL S. mutans suspension, S. gordonii suspension, and S. sanguinis suspension, respectively. […] The bacterial growth was assessed by measuring the absorbance at 595 nm using a microplate reader after a 24-hour incubation. Subsequently, 10 μL of bacterial suspension from each well were plated on horse blood agar plates and incubated at 37° C. for 48 h. The antibacterial activities of AMPs were evaluated.

[7] = test system: S. sanguinis; test: Anti-planktonic bacterial ability, MBC (Example 2); type: cell-based, S. sanguinis (ATCC 10556)
Protocol: as §3, §4

[8] = test system: S. mutans; test: Anti-planktonic bacterial ability, MBC (Example 2); type: cell-based, S. mutans (ATCC 35668)
Protocol: as §3, §4

[9] = for Peptide concentration incubated in human saliva: 37° C.
Protocol: (§5) The collected saliva samples were centrifuged at 12,000 rpm for 20 min^21]. The supernatant was filtered to remove any debris. […] At 0, 0.5, 1, 2, 4, and 6 h, 40 uL solutions were taken from each sample and were analysed by High Performance Liquid Chromatography (HPLC-UV, 1525 Binary HPLC Pump, 2489 UV/Visible Detector, Waters, USA).

[10] = in vitro; settings: human, human saliva (centrifuged, filtered supernatant)
Protocol: as §5

[11] = test system: MC3T3-E1 cells; test: Cytocompatibility test, CCK-8 (Example 2); parameters: Cytocompatibility: key to the marks not given beside the values
[12] = test system: S. mutans; test: Anti-bacterial adhesion ability on peptide-coated enamel (Example 1); type: cell-based, Streptococcus mutans (ATCC 35668); settings: 32 μmol/mL coated, 5 h incubation
Protocol: as §1
After overnight incubation, they were placed in a 96-well plate, followed by 200 μL S. mutans in BHI (10^6 CFU/mL) and incubation at 37° C. for 5 h. Tooth slices were washed once with PBS, one tooth slice at random from each group was stained, and fluorescence images obtained by CLSM. Separate tooth slices were used for CFU counting. Three independent biofilm experiments were performed.

[13] = demineralization solution 7 days

For “AKRHHGYKRKFH-D-3,4-dihydroxyphenethylamine (AKRHHGYKRKFHD-{3,4‑dihydroxyphenethylamine}; not fully specified; printed as AKRHHGYKRKFH-D-3,4-dihydroxyphenethylamine) [Peptide P-113-DA]”, the “S. mutans killed (biofilm)” value ([1]; 64 μmol/mL) was “Approximately 99%”, the “Viability counts of S. mutans biofilms” value ([1]; 64 μmol/mL) was 6.04E+05 CFU/mL and the “CLSM live/dead state of S. mutans biofilm” value ([1]; 64 and 128 μmol/mL, 24 h) was “the majority of S. mutans were dead”. The “Concentration change (95% CI)” value [2] was −0.17 (−0.55-0.40), the “Final concentration (Mean ± SD)” value [2] was 10.05 ± 0.99 nM mL^−1 and the MBC [3] was 32 μM mL^−1. For the same substance, the MIC [3] was 16 μM mL^−1, the Maximum lesion depth [4, 13] was 110 μm and the “Ca losses vs control group” value [4, 13] was “Significant differences were not detected”. For the same substance, the “Thickness of the regenerated crystal layer on the enamel surface” value [5] was 7 μm.

For “AKRHHGYKRKFHDSSDSSDSSDSSDSSDSSDSSDSS [Peptide P-113-8DSS]”, the “MBC, S. gordonii” value [6] was >64 μM mL^−1, the “MBC, S. sanguinis” value [7] was >64 μM mL^−1 and the “MBC, S. mutans” value [8] was >64 μM mL^−1.

With “DSSDSSDSSDSSDSSDSSDSSDSSAKRHHGYKRKFH [Peptide 8DSS-P-113]” the “MBC, S. gordonii” value [6] was 64 μM mL^−1, the “MBC, S. sanguinis” value [7] was 64 μM mL^−1 and the “MBC, S. mutans” value [8] was >64 μM mL^−1.

With “SpSpAKRHHGYKRKFH ([pS][pS]AKRHHGYKRKFH) [DPS-P-113]” the “MBC, S. gordonii” value [6] was >64 μM mL^−1, the “MBC, S. sanguinis” value [7] was >64 μM mL^−1 and the “MBC, S. mutans” value [8] was 64 μM mL^−1.

With TFFRLFNRAKRHHGYKRKFH [Peptide C8-P-113] the “Peptide concentration incubated in human saliva” value (“Peptide concentration incubated” below) ([9]; 0 h) was 1 mg/mL, the “Peptide concentration incubated” value ([9]; 0.5 h) was 0.9531 mg/mL and the “Peptide concentration incubated” value ([9]; 1 h) was 0.8602 mg/mL. For the same substance, the “Peptide concentration incubated” value ([9]; 2 h) was 0.4977 mg/mL, the “Peptide concentration incubated” value ([9]; 4 h) was 0.3578 mg/mL and the “Peptide concentration incubated” value ([9]; 6 h) was 0.119 mg/mL. For the same substance, the Stability ([9]; summary grade) was “−”, the remaining at 6 h, 1 mg mL^−1 [10] was 11.9% and the “Concentrations with no significant differences in cell survival rates compared to the control group” value ([11]; MC3T3-E1, 24 h, ½×MBC, MBC and 2×MBC tested) was “all concentrations”. The Cytocompatibility ([11]; summary grade) was “++”.

With “TFFRLFNRAKRHHGYKRKFHDSSDSSDSSDSSDSSDSSDSSDSS (not fully specified) [C8-P-113-8DSS]” the “MBC, S. gordonii” value [6] was >64 μM mL^−1, the “MBC, S. sanguinis” value [7] was >64 μM mL^−1 and the “MBC, S. mutans” value [8] was 64 μM mL^−1.

In the case of “phosphoserine-DSHAKRHHGYKRKFHEKHHSHRGY (SDSHAKRHHGYKRKFHEKHHSHRGY; N-terminal phosphoserine; MOD_RES 1 Serine is phosphorylated) [Sp-H5, phosphoserine-histatin 5, used as control group]”, the “S. mutans killed (biofilm)” value ([1]; 128 μmol/mL) is reported as “Approximately 99%”, the “Viability counts of S. mutans biofilms” value ([1]; 128 μmol/mL) is reported as 2.0E+04 CFU/mL and the “Concentration change (95% CI)” value [2] is reported as 3.27 (2.92-3.58). The “Final concentration (Mean ± SD)” value [2] was 6.73 ± 0.12 nM mL^−1, the MBC [3] was 32 μM mL^−1 and the MIC [3] was 8 μM mL^−1. The Maximum lesion depth [4, 13] was 85 μm, the “Ca and P loss from coated enamel slices (ICP-OES)” value ([4]; vs P-113-, P-113-DA-, P-113-SK-coated or non-coated slices, P<0.001) was “decreased significantly” and the “Viable counts of S. mutans on peptide-coated enamel surfaces” value [12] was 2.04E+05 CFU/mL. The “Thickness of the regenerated crystal layer on the enamel surface” value [5] was 6 μm.
